# Values of other authors as cited in US20210353570A1, “Flutamide Microsphere-Based Arterial Embolization for Treating Prostate Disorders” (Biovena Science, LLC, priority 2018, published 2021).
# Tests used:
# [1] = not given; remark: listed apart in the source
structure (smiles),measurement,setting,value
"CC(C)C(=O)Nc1ccc([N+](=O)[O-])c(C(F)(F)F)c1 [Flutamide, 4′-nitro-3′-trifluoromethyl-isobutyranilide]",bioavailability,after oral administration,49%
same,half-life,in vivo,5 to 6 h
same,solubility,[1],low solubility
